Laboratory results published in paper PMC6271559, “Synthesis and Evaluation of 2,4-Disubstituted Quinazoline Derivatives with Potent Anti-Angiogenesis Activities” (Molecules, 2014).
Where two headings read alike, the source gives them in different places.

How the values were obtained:
[1] = tested on: CNE-2 (human nasopharyngeal cancer) cells; experiment: MTT cytotoxicity assay, CNE-2; type: cell-based; settings: 48 h, mean of three independent assays
Text: (§1) In the early 80s, scientists proposed anti-angiogenesis as a potential target in cancer therapy. Much research in the past 30 years has targeted tumor angiogenesis as a means of inhibiting the process of tumor-caused blood vessel formation. Endothelial cells, which come from the inner lining of blood vessels, makes up a fundamental part of new blood vessels as well as pre-existing ones. A complete angiogenesis process includes the proliferation, migration, and differentiation of endothelial cells, so a great deal of angiogenesis inhibitors discovered to date target endothelial cells. We thus employed a cell proliferation assay to evaluate the cytotoxicity of quinazoline derivatives against both normal (HUVEC) and tumor cell lines (CNE-2, PC-3, and SMMC-7721 cell lines) so we can screen some molecules that have cytotoxicity against tumor cells but low cytotoxicity against HUVECs. Meanwhile, an appropriate concentration range of these compounds could be determined to further study their inhibitive effects against the proliferation, migration, and differentiation of HUVECs. The cytotoxic activities of quinazoline derivatives against human tumor cell lines CNE-2 (human nasopharyngeal cancer), PC-3 (human prostatic carcinoma), SMMC-7721 (human liver cancer) and Human Umbilical Vein Endothelial Cells (HUVECs) were determined by using the MTT cytotoxicity assay.
(§2) HUVEC, CNE-2, PC-3, and 7721 cell lines were seeded on 96-well plates at a concentration of 5,000 cells per well and exposed to various concentrations of quinazoline derivatives. After 48 h of treatment at 37 °C in a humidified atmosphere of 5% CO2, 5 mg/mL MTT solution (10 μL) was added to each well and further incubated for 4 h. Each well was then added dimethyl sulfoxide (DMSO, 100 μL), and the optical density (OD) was recorded at 490 nm. All measurements were done in triplicate, and the IC50 values were derived from the mean OD values of the triplicate tests versus drug concentration curves.

[2] = tested on: SMMC-7721 (human liver cancer) cells; experiment: MTT cytotoxicity assay, SMMC-7721; type: cell-based; settings: 48 h, mean of three independent assays
Text: as §1, §2

[3] = MTT cytotoxicity assay, HUVEC; type: cell-based; settings: human, HUVEC (human umbilical vein endothelial cells), mean of three independent assays
Text: as §1, §2

[4] = tested on: PC-3 (human prostatic carcinoma) cells; experiment: MTT cytotoxicity assay, PC-3; type: cell-based; settings: Prostatic carcinoma cell, 48 h, mean of three independent assays
Text: as §1, §2

[5] = tested on: HUVEC adhesion to collagen; experiment: HUVEC adhesion assay on type I collagen; type: cell-based, human; settings: adhesion of HUVEC on collagen, 37 °C; for inhibition at 15 µM / inhibition at 30 µM: Homo sapiens, HUVEC
Text: A perfect angiogenesis inhibitor must be show lower toxicity toward HUVECs, while showing high inhibitive capability towards the proliferation, migration, and differentiation of HUVECs. To assess the inhibitory effects of 2,4-disubstituted quinazoline derivatives, three assays were used: HUVEC adhesion assay, HUVEC migration assay and CAM assay. Firstly, to test the inhibitory effects of quinazoline derivatives on the attachment of endothelial cells to type I collagen, cell adhesion assays were carried out.
Cell adhesion assay was carried out by a reported method with slight modification. Wells of a 96-well plate were coated at room temperature overnight with rat trail tendon collagen type I (2 μg) in PBS in a final volume of 100 μL. The wells were washed three times with PBS ([…]) and then blocked with 0.2% bovine serum albumin (BSA) in PBS ([…]) for 2 h at 37 °C in a cell culture incubator. The wells were then washed three times with PBS ([…]). HUEVCs were detached from the dish, resuspended in DMEM, and added (50 μL, 10^4 cells/mL) to each well followed by the related compounds (50 μL) at various concentrations. The plates were incubated for 1 h or 3 h at 37 °C and then washed three times with PBS (100 μL). The attached cells were fixed and stained with 0.2 % crystal violet in 20% methanol for 10 min, then washed three times with PBS ([…]). The cells were solubilized by 2% SDS and the OD was measured at 570 nm. Attachment was determined by both 1 and 3 h as described above. Each compound was tested in triplicate and each experiment was repeated three times.

[6] = tested on: chick embryo chorioallantoic membrane (CAM); experiment: CAM angiogenesis assay; type: in vivo; settings: 30 μg/10 μL on filter disc, 48 h
Experimental: CAMs treated with 0.9% NaCl solution (negative control) were surrounded by all antoic vessels as newly-formed capillaries converging radially toward the sponge in a “spoked wheel” pattern (number of vessels 24 ± 3).
The in vivo CAM angiogenesis model as initially described by Folkman and then modified by Maragoudakis was used. Fertilized chicken eggs were used after incubating them for 8 days. A 1 cm × 1 cm window was made in the shell to create a pocket to expose the CAM. A filter disc with 0.9% NaCl solution or 30 μg/10 μL of compounds was then placed upon the CAM from 10 eggs per treatment and 48 h later, the CAMs were fixed with 4% paraformaldehyde and the vessel number from three random fields around the filter disc were pictured using a microscope.

[7] = 1 h, 1 h, 15 μM, read-out: 1 h Inhibition Rate % Dose 15 μM
[8] = 1 h, 1 h, 30 μM, read-out: 1 h Inhibition Rate % Dose 30 μM
[9] = 3 h, 3 h, 15 μM, read-out: 3 h Inhibition Rate % Dose 15 μM
[10] = 3 h, 3 h, 30 μM, read-out: 3 h Inhibition Rate % Dose 30 μM

| SMILES | IC50 [1] [µM] | melting point [°C] | IC50 [2] [µM] | IC50 at 48 h [3] [µM] | IC50 [4] [µM] | inhibition at 15 µM [5, 7] [%] | inhibition at 30 µM [5, 8] [%] | inhibition at 15 µM [5, 9] [%] | inhibition at 30 µM [5, 10] [%] | 3 h Inhibition Rate % Dose 15 μM ([5]; 3 h, 15 μM) [%] | 3 h Inhibition Rate % Dose 30 μM ([5]; 3 h, 30 μM) [%] | inhibition of angiogenesis in CAM assay [6] |
| --- | --- | --- | --- | --- | --- | --- | --- | --- | --- | --- | --- | --- |
| CN(C)CCCNc1nc(-c2ccccc2NC(=O)CCN2CCCCC2)nc2ccccc12 [Compound 11a, N-(2-(4-(3-(Dimethylamino)propylamino)quinazolin-2-yl)phenyl)-3-(piperidin-1-yl)propanamide] | 14.2 ± 0.1 | 178 to 179 | 19.9 ± 0.4 | 57.4 ± 0.5 | 18.1 ± 0.2 | 37.4 ± 0.3 | 49.6 ± 0.5 | 38.2 ± 0.1 | 59.3 ± 0.1 | – | – | – |
| CN(C)CCCNc1nc(-c2ccccc2NC(=O)CCN2CCCC2)nc2ccccc12 [Compound 11b, N-(2-(4-(3-(Dimethylamino)propylamino)quinazolin-2-yl)phenyl)-3-(pyrrolidin-1-yl)propanamide] | 14.3 ± 0.1 | 163 to 165 | 15.1 ± 0.2 | 46.3 ± 0.3 | 17.4 ± 0.1 | 35.4 ± 0.3 | 54.3 ± 0.3 | 35.2 ± 0.3 | 51.7 ± 0.2 | – | – | – |
| CN(C)CCCNc1nc(-c2ccccc2NC(=O)CN2CCN(C)CC2)nc2ccccc12 [Compound 10d, N-(2-(4-(3-(Dimethylamino)propylamino)quinazolin-2-yl)phenyl)-2-(4-methylpiperazin-1-yl)acetamide] | 10.5 ± 0.3 | 174 to 175 | 10.4 ± 0.1 | 38.7 ± 0.1 | 11.3 ± 0.5 | 34.8 ± 0.2 | 44.6 ± 0.4 | – | 63.4 | 32.5 ± 0.4 | 47.2 ± 0.1 | – |
| CN(C)CCCNc1nc(-c2ccccc2NC(=O)CCCN2CCCCC2)nc2ccccc12 [Compound 12a, N-(2-(4-(3-(Dimethylamino)propylamino)quinazolin-2-yl)phenyl)-4-(piperidin-1-yl)butanamide] | 17.3 ± 0.3 | 159 to 160 | 16.5 ± 0.1 | 41.7 ± 0.3 | 17.7 ± 0.2 | 33.6 ± 0.2 | 57.9 ± 0.3 | 40.6 ± 0.3 | 61.2 ± 0.3 | – | – | – |
| CCN(CC)CC(=O)Nc1ccccc1-c1nc(NCCCN(C)C)c2ccccc2n1 [Compound 10c, N-(2-(4-(3-(Dimethylamino)propylamino)quinazolin-2-yl)phenyl)-2-(diethylamino)acetamide] | 17.1 ± 0.4 | – | 19.4 ± 0.1 | 56.2 ± 0.2 | 17.6 ± 0.1 | 18.9 ± 0.3 | 27.8 ± 0.2 | 16.4 ± 0.4 | 29.5 ± 0.1 | – | – | – |
| CN(C)CCCNc1nc(-c2ccccc2NC(=O)CCCN2CCOCC2)nc2ccccc12 [Compound 12e, N-(2-(4-(3-(Dimethylamino)propylamino)quinazolin-2-yl)phenyl)-4-morpholinobutanamide] | 20.6 ± 0.2 | 152 to 154 | 20.8 ± 0.3 | 76.3 ± 0.2 | 21.9 ± 0.2 | 26.5 ± 0.2 | 34.7 ± 0.2 | 17.2 ± 0.4 | 39.4 ± 0.2 | – | – | – |
| CN(C)CCCNc1nc(-c2ccccc2NC(=O)CN2CCOCC2)nc2ccccc12 [Compound 10e, N-(2-(4-(3-(Dimethylamino)propylamino)quinazolin-2-yl)phenyl)-2-morpholinoacetamide] | 19.7 ± 0.2 | 179 to 181 | 22.6 ± 0.2 | 79.8 ± 0.1 | 20.5 ± 0.3 | – | 14.3 ± 0.1 | 7.9 ± 0.3 | 17.6 ± 0.3 | – | – | – |
| CN(C)CCCNc1nc(-c2ccccc2NC(=O)CCCN2CCN(C)CC2)nc2ccccc12 [Compound 12d, N-(2-(4-(3-(Dimethylamino)propylamino)quinazolin-2-yl)phenyl)-4-(4-methylpiperazin-1-yl)butanami-de] | 11.4 ± 0.1 | 155 to 157 | 10.3 ± 0.5 | 40.2 ± 0.2 | 10.9 ± 0.2 | 46.8 ± 0.2 | 63.7 ± 0.2 | 47.5 ± 0.3 | 63.4 ± 0.3 | – | – | excellent inhibition of angiogenesis |
| CN(C)CCCNc1nc(-c2ccccc2NC(=O)CN2CCCCC2)nc2ccccc12 [Compound 10a, N-(2-(4-(3-(Dimethylamino)propylamino)quinazolin-2-yl)phenyl)-2-(piperidin-1-yl)acetamide] | 13.6 ± 0.2 | 180 to 182 | 18.1 ± 0.2 | 45.7 ± 0.2 | 16.8 ± 0.1 | 26.7 ± 0.1 | 31.6 ± 0.3 | 29.2 ± 0.2 | 37.6 ± 0.1 | – | – | – |
| CN(C)CCCNc1nc(-c2ccccc2NC(=O)CCN2CCOCC2)nc2ccccc12 [Compound 11e, N-(2-(4-(3-(Dimethylamino)propylamino)quinazolin-2-yl)phenyl)-3-morpholinopropanamide] | 20.1 ± 0.2 | 165 to 167 | 20.9 ± 0.3 | 84.9 ± 0.3 | 19.6 ± 0.2 | 27.4 ± 0.3 | 32.3 ± 0.2 | 25.6 ± 0.3 | 36.4 ± 0.3 | – | – | – |
| CCN(CC)CCC(=O)Nc1ccccc1-c1nc(NCCCN(C)C)c2ccccc2n1 [Compound 11c, N-(2-(4-(3-(Dimethylamino)propylamino)quinazolin-2-yl)phenyl)-3-(diethylamino)propanamide] | 16.8 ± 0.4 | 158 to 160 | 13.8 ± 0.1 | 66.8 ± 0.3 | 18.7 ± 0.3 | 29.9 ± 0.2 | 38.7 ± 0.2 | 29.4 ± 0.2 | 36.3 ± 0.4 | – | – | – |
| CN(C)CCCNc1nc(-c2ccccc2NC(=O)CN2CCCC2)nc2ccccc12 [Compound 10b, N-(2-(4-(3-(dimethylamino)propylamino)quinazolin-2-yl)phenyl)-2-(pyrrolidin-1-yl)acetamide] | 14.9 ± 0.2 | 174 to 175 | 17.9 ± 0.4 | 39.3 ± 0.3 | 16.7 ± 0.2 | 28.3 ± 0.1 | 33 ± 0.2 | 27.8 ± 0.2 | 34.8 ± 0.2 | – | – | – |
| CN(C)CCCNc1nc(-c2ccccc2NC(=O)CCCN2CCCC2)nc2ccccc12 [Compound 12b] | 16.4 ± 0.3 | – | 15.3 ± 0.2 | 39.4 ± 0.1 | 18.9 ± 0.4 | 29.8 ± 0.1 | 49.3 ± 0.1 | 38.4 ± 0.2 | 60.1 ± 0.2 | – | – | – |
